In the supplement of paper PMC10307832:

Tests used:
Experiment in all cases: relative viability (nuclei count vs DMSO), 5 days (fraction); higher = more cells survive
AZD1208 + Lapatinib = compound: N[C@@H]1CCCN(c2c(/C=C3\SC(=O)NC3=O)cccc2-c2ccccc2)C1 [AZD1208] + CS(=O)(=O)CCNCc1ccc(-c2ccc3ncnc(Nc4ccc(OCc5cccc(F)c5)c(Cl)c4)c3c2)o1 [Lapatinib] (partner 2 µM)
Procedure, shortened: (§1)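 Dosing by pin tool came one day after lung cancer cell lines were seeded in 1536-well plates, using either one drug or a fixed anchor-drug dose plus five library-drug doses (not always all listed) in √10 steps. After 5 days, nuclei were counted on 4× images. Relative viability is treated-well nuclei count divided by vehicle-well nuclei count, and values are medians of duplicate plates.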

AZD1208 + Dasatinib = compound: N[C@@H]1CCCN(c2c(/C=C3\SC(=O)NC3=O)cccc2-c2ccccc2)C1 [AZD1208] + Cc1nc(Nc2ncc(C(=O)Nc3c(C)cccc3Cl)s2)cc(N2CCN(CCO)CC2)n1 [Dasatinib] (partner 0.075 µM)
Procedure, shortened: as §1

XMD14-99 + OSI-027 = compound: CN1CCN(CC1)C2=CC(=C(C=C2)NC3=NC(=C(S3)C(=O)C4=C(C=CC=C4Cl)Cl)N)OC [XMD14-99] + COc1cccc2cc(-c3nc([C@H]4CC[C@H](C(=O)O)CC4)n4ncnc(N)c34)[nH]c12 [OSI-027] (partner 0.5 µM)
Procedure, shortened: as §1

XMD14-99 + Pictilisib = compound: CN1CCN(CC1)C2=CC(=C(C=C2)NC3=NC(=C(S3)C(=O)C4=C(C=CC=C4Cl)Cl)N)OC [XMD14-99] + CS(=O)(=O)N1CCN(Cc2cc3nc(-c4cccc5[nH]ncc45)nc(N4CCOCC4)c3s2)CC1 [Pictilisib] (partner 1 µM)
Procedure, shortened: as §1

| Cell Line | relative viability (AZD1208 + Lapatinib; first compound 0.08 µM) | relative viability (AZD1208 + Lapatinib; first compound 0.253 µM) | relative viability (AZD1208 + Lapatinib; first compound 0.8 µM) | relative viability (AZD1208 + Lapatinib; first compound 2.53 µM) | relative viability (AZD1208 + Lapatinib; first compound 8 µM) | relative viability (AZD1208 + Dasatinib; first compound 0.08 µM) | relative viability (AZD1208 + Dasatinib; first compound 0.253 µM) | relative viability (AZD1208 + Dasatinib; first compound 0.8 µM) | relative viability (AZD1208 + Dasatinib; first compound 2.53 µM) | relative viability (AZD1208 + Dasatinib; first compound 8 µM) | relative viability (XMD14-99 + OSI-027; first compound 0.08 µM) | relative viability (XMD14-99 + OSI-027; first compound 0.8 µM) | relative viability (XMD14-99 + OSI-027; first compound 2.53 µM) | relative viability (XMD14-99 + OSI-027; first compound 8 µM) | relative viability (XMD14-99 + Pictilisib; first compound 0.08 µM) | relative viability (XMD14-99 + Pictilisib; first compound 0.8 µM) | relative viability (XMD14-99 + Pictilisib; first compound 2.53 µM) | relative viability (XMD14-99 + Pictilisib; first compound 8 µM) |
| --- | --- | --- | --- | --- | --- | --- | --- | --- | --- | --- | --- | --- | --- | --- | --- | --- | --- | --- |
| NCI-H2023 | 0.757 | 0.903 | 0.68 | 0.668 | 0.635 | 0.506 | 0.614 | 0.457 | 0.472 | 0.493 | 0.42 | 0.427 | 0.299 | 0.209 | 0.238 | 0.247 | 0.26 | 0.157 |
| NCI-H3122 | 1.08 | 0.984 | 1 | 1.05 | 1.15 | 0.833 | 0.75 | 0.642 | 0.618 | 0.0921 | 0.815 | 0.811 | 0.623 | 0.163 | 0.563 | 0.474 | 0.446 | 0.326 |
| NCI-H1755 | 1.05 | 1.09 | 1.01 | 0.978 | 0.848 | 0.422 | 0.407 | 0.345 | 0.339 | 0.209 | 0.709 | 0.712 | 0.668 | 0.517 | 0.404 | 0.401 | 0.426 | 0.295 |
| HCC-78 | 0.779 | 0.888 | 0.621 | 0.845 | 0.966 | 0.421 | 0.439 | 0.328 | 0.35 | 0.34 | 0.389 | 0.339 | 0.377 | 0.319 | 0.221 | 0.224 | 0.2 | 0.191 |
| LOU-NH91 | 0.727 | 0.704 | 0.662 | 0.703 | 0.583 | 0.57 | 0.551 | 0.496 | 0.496 | 0.491 | 0.744 | 0.7 | 0.73 | 0.63 | 0.586 | 0.614 | 0.516 | 0.545 |
| NCI-H322M | 0.574 | 0.568 | 0.507 | 0.578 | 0.56 | 0.261 | 0.235 | 0.23 | 0.224 | 0.228 | 0.56 | 0.581 | 0.492 | 0.372 | 0.514 | 0.538 | 0.495 | 0.476 |
| HCC-827 | 0.15 | 0.192 | 0.189 | 0.173 | 0.226 | 0.286 | 0.297 | 0.263 | 0.255 | 0.247 | 0.726 | 0.68 | 0.655 | 0.608 | 1.1 | 0.895 | 0.917 | 0.998 |
